Reference: patent publication US20260206761A1, “HETEROARYL-TRIAZOLE COMPOUNDS AS PESTICIDES” (Bayer Aktiengesellschaft, priority 2019, published 2026)

Columns and labels:
Assay type in all cases: in vivo
[1] = tested on: Rhipicephalus microplus larvae (strain Parkhurst, resistant against synthetic pyrethroids); assay: Rhipicephalus (Boophilus) microplus in-vitro contact test, larval cattle tick; conditions: after 48 hours, read-out: activity (efficacy: larvae dead or moribund); for pest or weed control at 100 g/ha: application rate 1 pg/cm^2 (=100 g/ha); for pest or weed control at 500 g/ha: application rate 5 pg/cm^2 (=500 g/ha)
Outline: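 Larvae (20-50 per tube) exposed to dry compound film on glass tube walls, 5 μg/cm^2 at 900 ppm, applied from acetone. After 48 h at 27° C./85% RH, tubes tapped and negative geotaxis scored; efficacy as percent dead or moribund larvae.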

[2] = tested on: adult cat fleas (Ctenocephalides felis); assay: Ctenocephalides felis in-vitro contact test, adult cat flea; conditions: application rate 5 μg/cm^2 (=500 g/ha), after 48 hours, read-out: activity (efficacy: fleas dead or moribund)
Protocol: Ctenocephalides felis—In-Vitro Contact Tests Adult Cat Flea
9 mg compound is solved in 1 mL acetone and diluted with acetone to the desired concentration. 250 μL of the test solution is filled in 25 mL glass test tubes and homogeneously distributed on the inner walls by rotation and tilting on a shaking device (2 h at 30 rpm). With a compound concentration of 900 ppm, an inner surface of 44.7 cm^2 and a homogeneous distribution, a dose of […] is achieved.
After the solvent has evaporated, each test tube is filled with 5-10 adult cat fleas (Ctenocephalides felis), closed with a perforated lid and incubated in a lying position at room temperature and relative humidity. After 48 hours efficacy is determined. The fleas are patted on the ground of the tubes and are incubated on a heating plate at 45-50° C. for at most 5 minutes. Immotile or uncoordinated moving fleas, which are not able to escape the heat by climbing upwards, are marked as dead or moribund.
An efficacy of 100% means all fleas are dead or moribund; 0% means no fleas are dead or moribund.

[3] = tested on: adult brown dog ticks (Rhipicephalus sanguineus); assay: Rhipicephalus sanguineus in-vitro contact test, adult brown dog ticks; conditions: after 48 hours, read-out: activity (efficacy: ticks dead or moribund); for pest or weed control at 5 µg/cm2, 500 g/ha: application rate 5 μg/cm^2 (=500 g/ha); for pest or weed control at 100 g/ha: application rate 1 pg/cm^2 (=100 g/ha)
Outline: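 Efficacy is % of adult ticks dead or moribund 48 h after confinement at room temperature in tubes wall-coated from acetone (5 μg/cm² at 900 ppm). Scoring by heat challenge at 45-50 °C up to 5 min; immotile or uncoordinated ticks failing to climb count as affected.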

[4] = tested on: green peach aphid (Myzus persicae); assay: Myzus persicae oral test; conditions: 120 h, application rate 4 ppm, after 5 days
Outline: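 Readout: % mortality at day 5, where 100% = all aphids dead and 0% = none dead. Feeding via parafilm membrane over compound in IPL41 medium (33%+15% sugar); mixed-age population. Stock in acetone (1:100 w/w), water-diluted.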

[5] = tested on: green peach aphid (Myzus persicae); assay: Myzus persicae spray test; conditions: 120 h, application rate 100 g/ha, after 5 days
Protocol: Myzus persicae—Spray Test
Solvent: 78.0 parts by weight acetone • 1.5 parts by weight dimethylformamide
Emulsifier: alkylarylpolyglycol ether
To produce a suitable preparation of active compound, 1 part by weight of active compound is mixed with the stated amount of solvents and is diluted with water, containing an emulsifier concentration of 1000 ppm, to the desired concentration. Further test concentrations are prepared by dilution with emulsifier containing water.
Chinese cabbage (Brassica pekinensis) leaf disks infected with all instars of the green peach aphid (Myzus persicae), are sprayed with a preparation of the active ingredient of the desired concentration.
After 5 days mortality in % is determined. 100% means all aphids have been killed and 0% means none of the aphids have been killed.

[6] = tested on: larvae of the southern green stink bug (Nezara viridula); assay: Nezara viridula spray test; conditions: 96 h, after 4 days; for mortality at 100 g/ha: application rate 100 g/ha; for mortality at 500 g/ha: application rate 500 g/ha
Outline: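 Larva-infested barley (Hordeum vulgare) plants received a spray of test solution prepared from an acetone/DMF concentrate diluted in emulsifier-containing water (1000 ppm). Percent kill read 4 days later; 0% means no stink bugs dead.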

[7] = tested on: fall armyworm larvae (Spodoptera frugiperda); assay: Spodoptera frugiperda spray test; conditions: 168 h, read-out: activity (mortality)
Outline: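 Larvae of fall armyworm placed on dried maize leaf sections previously sprayed with emulsified compound (acetone/DMF solvent, water with 1000 ppm emulsifier). Percent of caterpillars killed recorded on day 7, 0–100% scale.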

[8] = tested on: larvae of the banded cucumber beetle (Diabrotica balteata); assay: Diabrotica balteata spray test; conditions: 168 h, application rate 100 g/ha (=32 pg/well), after 7 days, read-out: activity (efficacy: seedlings grown)
Outline: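 Read-out is % efficacy at day 7, 0% meaning no seedling growth and 100% growth equal to uninfested untreated controls. Test solutions (acetone/DMF concentrate diluted with water carrying 1000 ppm emulsifier) were sprayed onto 1-day-germinated wheat seeds, 5 per well, before infestation with 10-20 larvae.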

[9] = tested on: adult engorged female ticks (Rhipicephalus microplus); assay: Rhipicephalus (Boophilus) microplus injection test; conditions: 168 h, egg deposition after 7 days, read-out: activity (efficacy: infertile eggs); for pest or weed control at 4 pg: application rate 4 pg/animal
Outline: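 Compound in DMSO (10 mg per 0.5 mL, then diluted with DMSO to test concentration); 1 μL injected into the abdomen of each of five engorged females, then held in a climate chamber. Fertile egg deposition checked at 7 days; efficacy 100% = all eggs infertile, 0% = all fertile.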

[10] = tested on: adult unfed cat fleas (Ctenocephalides felis); assay: Ctenocephalides felis oral test; conditions: 48 h, read-out: activity (mortality)
Protocol: Ctenocephalides felis—Oral Test
Solvent: dimethyl sulfoxide
To produce a suitable preparation of active compound, 10 mg of active compound are dissolved in 0.5 mL solvent, and the concentrate is diluted with cattle blood to the desired concentration.
Approximately 20 adult unfed cat fleas (Ctenocephalides felis) are placed in flea chambers. The blood chamber, sealed with parafilm on the bottom, are filled with cattle blood supplied with compound solution and placed on the gauze covered top of the flea chamber, so that the fleas are able to suck the blood. The blood chamber is heated to 37° C. whereas the flea chamber is kept at room temperature.
After 2 days mortality in % is determined. 100% means all the fleas have been killed; 0% means none of the fleas have been killed.

[11] = tested on: Aedes aegypti strain MONHEIM; assay: Aedes aegypti test (AEDSAE surface treatment & contact assay); conditions: 24 hours after contact, read-out: efficacy (mortality); for mortality at 4 mg/m2: surface concentration 4 mg/m^2, exposure 30 minutes
Protocol: Aedes aegypti Test (AEDSAE Surface Treatment & Contact Assay)
Solvent: Aceton+2000 ppm rapeseed oil methyl ester (RME)
In order to produce a sufficient, active ingredient containing solution it is necessary to solve the test compound in the solvent-mix (acetone at 2 mg/ml/RME 2000 ppm). This solution is pipetted onto a glazed tile and after evaporation of the acetone, adult mosquitoes of the species Aedes aegypti strain MONHEIM are placed onto the dried surface. The exposure time is 30 minutes. Mortality in percent (%) is determined 24 hours after contact of the insects to the treated surface. 100% mortality means that all tested insects are dead, whereas 0% means that no insect died.

**Q.** COc1nc([C@H](C)NC(=O)c2cc(C(F)F)cc(C3CC3)c2)n(-c2ccc(C#N)cn2)n1 [I-70] was tested. Which pest or weed control at 100 g/ha [1] did it give?
**A.** 100%

**Q.** And the pest or weed control at 500 g/ha [1]?
**A.** 100%

**Q.** What about the pest or weed control at 5 µg/cm2 [2] of the same molecule?
**A.** 80%

**Q.** And the pest or weed control at 5 µg/cm2, 500 g/ha [3]?
**A.** 80%

**Q.** How did the mortality at 4 ppm [4] turn out when COc1nc([C@H](C)NC(=O)c2cc(Cl)cc(S(=O)(=O)C3CC3)c2)n(-c2ncc(Cl)cn2)n1 [I-79] was run?
**A.** 100%

**Q.** What about the mortality at 100 g/ha [5] of the same molecule?
**A.** 90%

**Q.** And the mortality at 100 g/ha [6]?
**A.** 90%

**Q.** And the mortality at 500 g/ha [6]?
**A.** 100%

**Q.** And the mortality at 100 g/ha [7]?
**A.** 100%

**Q.** For COc1nc([C@H](C)NC(=O)c2cc(OC(F)(F)F)cc(S(=O)(=O)C3CC3)c2)n(-c2ncc(Cl)cn2)n1 [I-91], which pest or weed control at 100 g/ha [8] is on record?
**A.** 100%

**Q.** And the mortality at 100 g/ha [5]?
**A.** 90%

**Q.** And the mortality at 500 g/ha [6]?
**A.** 100%

**Q.** What about the mortality at 100 g/ha [7] of the same molecule?
**A.** 100%

**Q.** COc1nc([C@H](C)NC(=O)c2cc(C(F)F)cc(S(=O)(=O)C3CC3)c2)n(-c2ccc(Cl)cn2)n1 [I-94] was tested. Which pest or weed control at 100 g/ha [8] did it give?
**A.** 100%

**Q.** What about the mortality at 100 g/ha [5] of the same molecule?
**A.** 90%

**Q.** What about the mortality at 500 g/ha [6] of the same molecule?
**A.** 100%

**Q.** And the mortality at 100 g/ha [7]?
**A.** 100%

**Q.** Which results are given for CCS(=O)(=O)c1cc(C(=O)N[C@@H](C)c2ncnn2-c2ccc(Cl)cn2)cc(C(F)(F)F)c1 [II-45]?
**A.** pest or weed control at 100 g/ha [1]: 100%; pest or weed control at 500 g/ha [1]: 100%; pest or weed control at 4 pg [9]: 100%; pest or weed control at 0.02 mg ([9]; application rate 20 μg/animal): 100%; pest or weed control at 5 µg/cm2 [2]: 80%; mortality at 100 ppm [10]: 100%; pest or weed control at 100 g/ha [8]: 100%; mortality at 100 g/ha [6]: 100%; mortality at 4 mg/m2 [11]: 80 to 100%

**Q.** C[C@H](NC(=O)c1cc(C#N)cc(C2CC2)c1)c1ncnn1-c1ccc(C#N)cn1 [II-53] was tested. Which pest or weed control at 100 g/ha [1] did it give?
**A.** 80%

**Q.** What about the pest or weed control at 500 g/ha [1] of the same molecule?
**A.** 80%

**Q.** What about the pest or weed control at 5 µg/cm2 [2] of the same molecule?
**A.** 100%

**Q.** And the mortality at 100 ppm [10]?
**A.** 100%

**Q.** What about the mortality at 100 g/ha [7] of the same molecule?
**A.** 83%

**Q.** What about the mortality at 4 mg/m2 [11] of the same molecule?
**A.** 80 to 100%

**Q.** What about the mortality at 20 mg/m2 ([11]; surface concentration 20 mg/m^2, exposure 30 minutes) of the same molecule?
**A.** 80 to 100%

**Q.** What does the source list for C[C@H](NC(=O)c1cc(I)cc(C2CC2)c1)c1ncnn1-c1ccc(C#N)cn1 [II-58]?
**A.** pest or weed control at 100 g/ha [1]: 100%; pest or weed control at 500 g/ha [1]: 100%; pest or weed control at 4 pg [9]: 100%; pest or weed control at 5 µg/cm2 [2]: 80%; mortality at 100 ppm [10]: 100%; pest or weed control at 100 g/ha [3]: 100%; pest or weed control at 5 µg/cm2, 500 g/ha [3]: 100%; pest or weed control at 100 g/ha [8]: 100%; mortality at 100 g/ha [7]: 100%

**Q.** With C[C@H](NC(=O)c1cc(Br)cc(C2CC2)c1)c1ncnn1-c1ccc(C#N)cn1 [II-59] as the molecule, how does the pest or weed control at 100 g/ha [1] read?
**A.** 100%

**Q.** And the pest or weed control at 500 g/ha [1]?
**A.** 100%

**Q.** What about the pest or weed control at 4 pg [9] of the same molecule?
**A.** 80%

**Q.** What about the pest or weed control at 5 µg/cm2 [2] of the same molecule?
**A.** 100%

**Q.** What about the pest or weed control at 100 g/ha [3] of the same molecule?
**A.** 100%

**Q.** And the pest or weed control at 5 µg/cm2, 500 g/ha [3]?
**A.** 100%

**Q.** What about the pest or weed control at 100 g/ha [8] of the same molecule?
**A.** 100%

**Q.** And the mortality at 4 ppm [4]?
**A.** 100%

**Q.** And the mortality at 100 g/ha [7]?
**A.** 100%
